Experimental data as given in ChEMBL document CHEMBL3739407, “Synthesis and SAR of Imidazo[1,5-a]pyridine derivatives as 5-HT4 receptor partial agonists for the treatment of cognitive disorders associated with Alzheimer's disease” (Eur J Med Chem, 2015).

Legend:
[1] = Oral bioavailability in Wistar rat at 10 mg/kg; format: ADME, organism-based; settings: in vivo
[2] = Cmax in Wistar rat at 10 mg/kg, po and 5 mg/kg, iv; format: ADME, organism-based; settings: in vivo
[3] = Volume of distribution at steady state in Wistar rat at 10 mg/kg, po and 5 mg/kg, iv by LC-MS analysis; format: ADME, organism-based; settings: in vivo, read-out: Vdss
[4] = Ratio of drug level in brain to plasma in Wistar rat at 10 mg/kg, po and 5 mg/kg, iv; format: ADME, organism-based; settings: read-out: BPR
[5] = Cmax in beagle dog at 1 mg/kg, po; format: ADME, organism-based, Canis lupus familiaris; set-up: dose 1 mg/kg, route oral; settings: in vivo
[6] = Oral bioavailability in beagle dog at 1 mg/kg; format: ADME, organism-based, Canis lupus familiaris; settings: in vivo
[7] = Cmax in Wistar rat at 3 mg/kg, po; format: ADME, organism-based; set-up: dose 3 mg/kg, route oral; settings: in vivo
[8] = AUC (0 to t) in Wistar rat at 1 mg/kg, iv; format: ADME, organism-based; settings: in vivo
[9] = Oral bioavailability in Wistar rat at 3 mg/kg; format: ADME, organism-based; settings: in vivo
[10] = AUC (0 to t) in beagle dog at 1 mg/kg, po; format: ADME, organism-based, Canis lupus familiaris; settings: in vivo
[11] = AUC (0 to t) in beagle dog at 1 mg/kg, iv administered as 5 mins infusion; format: ADME, organism-based, Canis lupus familiaris; settings: in vivo
[12] = Apparent volume of distribution in Wistar rat at 1 mg/kg, iv; format: ADME, organism-based; settings: in vivo, read-out: Vd(app)
[13] = AUC (0 to t) in Wistar rat at 3 mg/kg, po; format: ADME, organism-based; settings: in vivo
[14] = Tmax in Wistar rat at 3 mg/kg, po; format: ADME, organism-based; settings: in vivo
[15] = Apparent permeability of the compound in human Caco2 cells; format: ADME, cell-based; settings: Caco-2
[16] = Tmax in beagle dog at 1 mg/kg, po; format: ADME, organism-based, Canis lupus familiaris; settings: in vivo
[17] = Apparent volume of distribution in beagle dog at 1 mg/kg, iv administered as 5 mins infusion; format: ADME, organism-based, Canis lupus familiaris; settings: in vivo, read-out: Vd(app)

In the case of `CC(C)c1nc(C(=O)NC2CCN(CC3CC3)CC2)c2ccccn12`, the bioavailability [1] is reported as 3.7%, the Cmax [2] is reported as 74 ng/mL and the Vd [3] is reported as 5.3 L/kg.
In the case of `CC(C)c1nc(C(=O)NC2CCN(C(C)C)CC2)c2ccccn12`, the bioavailability [1] is reported as 10%, the Cmax [2] is reported as 166 ng/mL and the Vd [3] is reported as 4.7 L/kg.
`CC(C)c1nc(C(=O)NC[C@@H]2[C@H]3CN(CC4CCOCC4)C[C@@H]23)c2ccccn12` gave a bioavailability [1] of 17%, a Cmax [2] of 120 ng/mL and a Vd [3] of 10.4 L/kg. It also gave a Kp [4] of 0.6.
`COCCCN1C[C@@H]2[C@@H](CNC(=O)c3nc(C(C)C)n4ccccc34)[C@@H]2C1` showed a bioavailability [1] of 26%, a Cmax [5] of 412 ng/mL and a bioavailability [6] of 94%. The Cmax [7] was 188 ng/mL, the AUC(0-t) [8] was 389 ng·h/mL and the bioavailability [9] was 26%. For the same compound, the AUC(0-t) [10] was 1220 ng·h/mL, the Cmax [2] was 188 ng/mL and the AUC(0-t) at 5 min [11] was 1310 ng·h/mL. For the same compound, the Vd [12] was 3.7 L/kg, the Vd [3] was 3.7 L/kg and the AUC(0-t) [13] was 301 ng·h/mL. For the same compound, the Kp [4] was 0.31, the Tmax [14] was 15 min and the Papp [15] was 34.8 ×10⁻⁶ cm/s. For the same compound, the Tmax [16] was 30 min and the Vd [17] was 2.1 L/kg.
Work on `COC(=O)N1CCC(CN2C[C@@H]3[C@@H](CNC(=O)c4nc(C(C)C)n5ccccc45)[C@@H]3C2)CC1` yielded a bioavailability [1] of 12%, a Cmax [2] of 150 ng/mL and a Vd [3] of 3.3 L/kg. For the same compound, the Kp [4] was 0.69.
Work on `CC(C)c1nc(C(=O)NC2CCN(CC3(O)CCOCC3)CC2)c2ccccn12` yielded a bioavailability [1] of 63%, a Cmax [2] of 434 ng/mL and a Vd [3] of 4.7 L/kg. For the same compound, the Kp [4] was 0.38.
In the case of `CC(C)c1nc(C(=O)NC[C@@H]2[C@H]3CN(C(C)C)C[C@@H]23)c2ccccn12`, the bioavailability [1] is reported as 5%, the Cmax [2] is reported as 80 ng/mL and the Vd [3] is reported as 7.6 L/kg. The Kp [4] was 0.14.
Compound `CC(C)c1nc(C(=O)NC2CCN(CCF)CC2)c2ccccn12` has a bioavailability [1] of 11%, a Cmax [2] of 99 ng/mL and a Vd [3] of 2.9 L/kg. The Kp [4] was 1.46.
With `CC(C)c1nc(C(=O)NC2CCN(C3CCOCC3)CC2)c2ccccn12` the bioavailability [1] was 98%, the Cmax [2] was 1760 ng/mL and the Vd [3] was 4.6 L/kg. It also gave a Kp [4] of 0.31.
In the case of `CC(C)c1nc(C(=O)NC[C@@H]2[C@H]3CN(CC(C)(C)O)C[C@@H]23)c2ccccn12`, the bioavailability [1] is reported as 34%, the Cmax [2] is reported as 277 ng/mL and the Vd [3] is reported as 3.8 L/kg. It also gave a Kp [4] of 0.31.
With `CC(C)c1nc(C(=O)NC[C@@H]2[C@H]3CN(CC(C)(C)F)C[C@@H]23)c2ccccn12` the bioavailability [1] was 1.5%, the Cmax [2] was 8.1 ng/mL and the Vd [3] was 4.9 L/kg. For the same compound, the Kp [4] was 0.38.
In the case of `CC(C)c1nc(C(=O)NCC2CCN(CC3CCOCC3)CC2)c2ccccn12`, the bioavailability [1] is reported as 45%, the Cmax [2] is reported as 232 ng/mL and the Vd [3] is reported as 4 L/kg. For the same compound, the Kp [4] was 0.31.
`COCCCN1CCC(NC(=O)c2nc(C(C)C)n3ccccc23)CC1` showed a bioavailability [1] of 44%, a Cmax [2] of 848 ng/mL and a Vd [3] of 4.9 L/kg. For the same compound, the Kp [4] was 0.31.
Work on `COCCCN1CCC(CNC(=O)c2nc(C(C)C)n3ccccc23)CC1` yielded a bioavailability [1] of 30%, a Cmax [2] of 109 ng/mL and a Vd [3] of 5.2 L/kg. The Kp [4] was 0.22.
